Source: ChEMBL document CHEMBL1151648, “The Sesquiterpenes of Lactarius vellereus and Their Role in a Proposed Chemical Defense System” (J Nat Prod, 1985)

Tests used:
Type in all cases: functional
[1] = tested on: Micrococcus luteus; experiment: Antimicrobial activity against Micrococcus luteus by Kirby-Bauer growth inhibition assay
[2] = tested on: Candida albicans; experiment: Antimicrobial activity against Candida albicans by Kirby-Bauer growth inhibition assay
[3] = tested on: Escherichia coli; experiment: Antimicrobial activity against Escherichia coli by Kirby-Bauer growth inhibition assay

| SMILES | Activity [1] [µg] | Activity [2] [µg] | Activity [3] [µg] |
| --- | --- | --- | --- |
| CC1(C)C[C@H]2C=C3COC(O)[C@]34C[C@]4(C)[C@H]2C1 (stereo not given in full) [ISOVELLEROL] | 300 | 50 | >1000 |
| C[C@H]1C=C(C=O)C(C=O)=C[C@@H]2CC(C)(C)C[C@@H]21 [LACTARANE] | 15 | 2 | 50 |
| C[C@H]1C=C(C=O)C(CO)=C[C@@H]2CC(C)(C)C[C@@H]21 [VELLEROL] | 300 | 100 | >1000 |
| CC1(C)C[C@H]2C=C(C=O)[C@]3(C=O)C[C@]3(C)[C@H]2C1 [ISOVELLERAL] | 2 | 2 | 15 |
| C[C@H]1C=C(CO)C(CO)=C[C@@H]2CC(C)(C)C[C@@H]21 [VELLERDIOL] | >1000 | >1000 | >1000 |
